1 compound from patent US7960130B2, “Method for activation of transient receptor potential cation channel, subfamily A, member 1 using acetaldehyde” (Korea University Industry and Academy Cooperation Foundation, priority 2008, dated 2011) can be followed below.

For test [1], the system named is TRPA1. Put plainly: Whole-cell voltage-clamp recording of TRPA1 transfected cell line. It is filed as cell-based. Particulars: 1 mM acetaldehyde, 300 μM cinnamaldehyde, voltage ramp -80 to +80 mV, n=5. The procedure: (§1) Particularly, the HEK293T cell line was transiently transfected with individual TRP channel plasmid (pcDNA3.1 containing polynucleotide encoding hTRPA1, rTRPV2, rTRPV1 or mTRPV4; pcDNA5/FRT containing polynucleotide encoding mTRPA1, hTRPV3 or mTRPM8) 3 μg per 35-mm dish and 600 ng/well of pcDNA3 (Invitrogen Corp., USA; containing green fluorescent protein (GFP) cDNA) using Fugene6 (Roche Diagnostics, USA) according to manufacturer's instruction. The transformed cells were cultured in DMEM/F12 containing 10% FBS and 1% penicillin/streptomycin in a CO2 incubator for 24 hours. The cells were replated onto poly-L-lysine-coated glass coverslips, followed by further culture for 10-24 hours.
Stock solutions were made using water or ethanol, and were diluted with test solutions before use.
This experiment was repeated 5 times.

The target of test [2] is T1, TRPV1 (Rattus norvegicus, UniProt O35433).
T1 construct: expressed in transfected cells; host or cells: HEK293T (ATCC CRL-11268), pcDNA3.1
T1 sequence (O35433 whole entry): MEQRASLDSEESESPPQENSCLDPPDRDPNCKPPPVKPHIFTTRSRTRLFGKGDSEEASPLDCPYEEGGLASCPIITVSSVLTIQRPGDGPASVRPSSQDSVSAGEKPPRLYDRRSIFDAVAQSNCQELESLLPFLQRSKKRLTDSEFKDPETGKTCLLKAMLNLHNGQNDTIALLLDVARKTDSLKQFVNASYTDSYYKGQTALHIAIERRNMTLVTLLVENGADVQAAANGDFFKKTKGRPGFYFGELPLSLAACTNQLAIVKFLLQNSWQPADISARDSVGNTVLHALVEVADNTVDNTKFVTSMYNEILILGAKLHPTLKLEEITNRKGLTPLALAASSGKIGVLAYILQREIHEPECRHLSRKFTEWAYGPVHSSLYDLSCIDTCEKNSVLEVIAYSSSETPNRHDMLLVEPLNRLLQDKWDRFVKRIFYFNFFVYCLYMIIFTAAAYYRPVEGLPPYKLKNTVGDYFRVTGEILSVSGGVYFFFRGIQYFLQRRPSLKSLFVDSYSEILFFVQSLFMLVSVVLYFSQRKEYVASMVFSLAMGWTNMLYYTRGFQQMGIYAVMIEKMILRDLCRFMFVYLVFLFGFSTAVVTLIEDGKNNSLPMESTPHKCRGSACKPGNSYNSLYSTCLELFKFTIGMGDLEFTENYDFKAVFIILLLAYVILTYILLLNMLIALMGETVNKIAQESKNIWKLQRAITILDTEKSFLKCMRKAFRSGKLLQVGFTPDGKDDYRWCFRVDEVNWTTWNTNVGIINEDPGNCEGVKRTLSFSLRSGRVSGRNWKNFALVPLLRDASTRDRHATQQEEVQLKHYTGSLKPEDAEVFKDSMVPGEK
The experiment in a line: Calcium imaging of TRP transfected cell lines treated with acetaldehyde (TRPV1). It counts as cell-based. The conditions noted are these: 1 mM acetaldehyde.
Text: (§2) HEK293T cell line (ATCC CRL-11268) was transiently transfected with plasmid DNA containing polynucleotide encoding hTRPA1 (SEQ. ID. NO: 1), rTRPV2 (SEQ. ID. NO: 2), rTRPV1 (SEQ. ID. NO: 3), mTRPV4 (SEQ. ID. NO: 4), mTRPA1 (SEQ. ID. NO: 5), hTRPV3 (SEQ. ID. NO: 6) or mTRPM8 (SEQ. ID. NO: 7).
as §1
(§3) Particularly, the transfected cell line of Example <4-1> was loaded with Fluo-3AM (5 μM; Sigma Aldrich, USA) in the bath solution (140 mM NaCl, 5 mM KCl, 2 mM CaCl2, 1 mM MgCl2, 10 mM HEPES; adjusted to pH 7.4 with NaOH) containing 0.02% pluronic acid (Invitrogen, USA). […]

The target in test [3] is T2, TRPV2 (Rattus norvegicus, UniProt Q9WUD2, A713V/L151P/T158I).
T2 construct: expressed in transfected cells; host or cells: HEK293T (ATCC CRL-11268), pcDNA3.1
T2 sequence (Q9WUD2 1-761 L151P/T158I/A713V): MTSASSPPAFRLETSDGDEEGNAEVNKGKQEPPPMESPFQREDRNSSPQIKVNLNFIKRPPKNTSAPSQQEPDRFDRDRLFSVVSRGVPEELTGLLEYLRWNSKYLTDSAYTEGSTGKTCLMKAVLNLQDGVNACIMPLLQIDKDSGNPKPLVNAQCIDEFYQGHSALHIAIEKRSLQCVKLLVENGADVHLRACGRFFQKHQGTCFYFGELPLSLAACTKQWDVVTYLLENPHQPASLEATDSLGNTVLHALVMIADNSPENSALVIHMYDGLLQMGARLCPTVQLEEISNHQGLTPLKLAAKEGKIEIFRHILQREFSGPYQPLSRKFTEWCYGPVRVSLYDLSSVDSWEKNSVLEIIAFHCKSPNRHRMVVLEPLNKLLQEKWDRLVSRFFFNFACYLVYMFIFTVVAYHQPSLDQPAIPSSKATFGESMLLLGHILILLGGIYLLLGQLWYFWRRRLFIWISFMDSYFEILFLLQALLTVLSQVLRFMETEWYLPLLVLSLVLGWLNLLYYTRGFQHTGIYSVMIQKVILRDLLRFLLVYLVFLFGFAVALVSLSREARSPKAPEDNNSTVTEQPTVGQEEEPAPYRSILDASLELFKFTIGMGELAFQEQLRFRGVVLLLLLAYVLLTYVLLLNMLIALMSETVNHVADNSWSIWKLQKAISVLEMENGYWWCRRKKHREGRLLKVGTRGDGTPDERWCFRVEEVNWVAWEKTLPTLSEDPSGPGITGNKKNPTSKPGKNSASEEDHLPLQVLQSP
The experiment in a line: Calcium imaging of TRP transfected cell lines treated with acetaldehyde (TRPV2). It is filed as cell-based. Particulars: 1 mM acetaldehyde.
Text: as §2, §1, §3

The target of test [4] is T3, TRPV4 (Mus musculus, UniProt Q9EPK8).
T3 construct: expressed in transfected cells; host or cells: HEK293T (ATCC CRL-11268), pcDNA3.1
T3 sequence (Q9EPK8 whole entry): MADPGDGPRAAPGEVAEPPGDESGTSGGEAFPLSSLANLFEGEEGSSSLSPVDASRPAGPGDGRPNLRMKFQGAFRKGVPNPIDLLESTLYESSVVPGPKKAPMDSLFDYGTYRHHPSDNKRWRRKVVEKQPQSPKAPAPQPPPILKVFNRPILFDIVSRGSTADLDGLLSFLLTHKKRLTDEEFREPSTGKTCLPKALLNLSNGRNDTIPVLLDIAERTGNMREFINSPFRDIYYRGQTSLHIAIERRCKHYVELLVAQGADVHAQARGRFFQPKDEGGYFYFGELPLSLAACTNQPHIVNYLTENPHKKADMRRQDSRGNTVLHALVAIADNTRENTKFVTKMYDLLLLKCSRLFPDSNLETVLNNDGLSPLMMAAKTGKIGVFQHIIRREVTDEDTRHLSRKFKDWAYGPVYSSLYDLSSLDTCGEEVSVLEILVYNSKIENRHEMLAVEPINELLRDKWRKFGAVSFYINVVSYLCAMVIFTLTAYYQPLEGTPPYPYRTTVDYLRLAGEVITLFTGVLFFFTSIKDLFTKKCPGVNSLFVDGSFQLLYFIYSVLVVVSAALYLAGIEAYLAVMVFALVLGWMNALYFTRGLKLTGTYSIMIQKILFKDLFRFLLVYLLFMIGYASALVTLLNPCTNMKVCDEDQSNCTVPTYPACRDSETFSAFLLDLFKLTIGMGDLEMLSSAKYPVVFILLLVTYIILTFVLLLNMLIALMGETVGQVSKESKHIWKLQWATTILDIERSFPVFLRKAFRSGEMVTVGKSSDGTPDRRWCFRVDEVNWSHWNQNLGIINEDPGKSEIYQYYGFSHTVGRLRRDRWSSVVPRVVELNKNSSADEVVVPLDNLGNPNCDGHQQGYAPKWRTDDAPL
Put plainly: Calcium imaging of TRP transfected cell lines treated with acetaldehyde (TRPV4). It is filed as cell-based. The conditions noted are these: 1 mM acetaldehyde.
Text: as §2, §1, §3

Test [5] has as its system ICR mice. Put plainly: Acute hindpaw licking/flicking behavioral analysis. Particulars: 10 min.
Protocol: This analysis was performed in accordance with protocols approved by the University Committee on Laboratory Animals. Mice were acclimated for 1 h to the test environment prior to experiments. Drugs dissolved in vehicle (PBS containing 0.5% Tween 80) were injected into mice right hindpaws intradermally.
Test [6] deals with trigeminal neurons. Put plainly: Fluo-3 calcium imaging of cultured mouse trigeminal neurons.
Protocol: The trigeminal neurons prepared thereby were then plated onto poly-L-lysine-coated coverslips in DMEM/F12 containing 10% FBS, 1% penicillin/streptomycin and 5 ng/Ml of 2.5S NGF (Invitrogen, USA), nerve growth factor (Invitrogen), followed by culture in a CO2 incubator for 48-72 hours.
Calcium imaging was performed with a confocal microscope (LSM5 Pascal, Carl Zeiss, Germany), and time-lapse images (488 nm excitation/514 nm emission) were collected every 3 seconds using Carl Zeiss ratio tool software (Carl Zeiss, Germany).

As usually defined, the EC50 is the concentration that produces a half-maximal response.

As to `CC=O` [acetaldehyde], in test [1], the “whole-cell current response in TRPA1 expressing cells” value is reported as “pronounced outwardly rectifying current occurred”. In addition, in test [2], the “activation of TRPV1 by acetaldehyde” value is given as “only TRPA1 was activated”. The “activation of TRPV2 by acetaldehyde” value in test [3] is “only TRPA1 was activated”. In test [4], the “activation of TRPV4 by acetaldehyde” value was “only TRPA1 was activated”. For the same compound, the “dose dependence of acetaldehyde-induced nociceptive behaviors” value in test [5] (1 mM, 10 mM, 100 mM acetaldehyde intradermal) is “increased in a dose-dependent manner”. The “acute hindpaw licking/flicking behavior elicited” value in test [5] (intradermal into hindpaw, 10 μl, 100 mM acetaldehyde or 10 mM cinnamaldehyde, n=5) is on record as “elicited acute licking or flicking behavior”. In addition, in test [6] (1 mM acetaldehyde, n=19), the “acetaldehyde response of capsaicin-cinnamaldehyde-positive neurons” value was “did response”. Moreover, the “acetaldehyde response of menthol-positive neurons” value in test [6] (1 mM acetaldehyde, n=36, considered to express TRPM8) was “did not show response”. Moreover, in test [6] (1 mM acetaldehyde, n=102, considered to express TRPV1), the “acetaldehyde response of capsaicin-positive/cinnamaldehyde-negative neurons” value was “did not show response”. In test [6] (Mus musculus, Neuron, read-out: EC50 of acetaldehyde alone (Kd of dose-response curve) in trigeminal neurons), the EC50 is 740 µM. For the same compound, in test [6] (acetaldehyde + 1 μM PGE2), the “maximum efficacy heightened with PGE2 versus acetaldehyde alone” value amounted to 1.2 fold.
